Biological target: T1, rM3Ds (Rattus norvegicus, UniProt P08483, A177S/A238G/A489L/DEL261-437/DEL441-478/E258S/I253V/I483M/INS256[…]/K178L/K182A/K255R/K484R/K486H/L173F/L482A/M480V/R171S/R176Q/R179M/S481M/T174R/T181R/T257A/Y148C)
T1 sequence (P08483 with tags, fused parts or gaps Y148C/R171S/L173F/T174R/R176Q/A177S/K178L/R179M/T181R/K182A/A238G/I253V/K255R/INS256[…]/T257A/E258S/DEL261-437/DEL441-478/M480V/S481M/L482A/I483M/K484R/K486H/A489L): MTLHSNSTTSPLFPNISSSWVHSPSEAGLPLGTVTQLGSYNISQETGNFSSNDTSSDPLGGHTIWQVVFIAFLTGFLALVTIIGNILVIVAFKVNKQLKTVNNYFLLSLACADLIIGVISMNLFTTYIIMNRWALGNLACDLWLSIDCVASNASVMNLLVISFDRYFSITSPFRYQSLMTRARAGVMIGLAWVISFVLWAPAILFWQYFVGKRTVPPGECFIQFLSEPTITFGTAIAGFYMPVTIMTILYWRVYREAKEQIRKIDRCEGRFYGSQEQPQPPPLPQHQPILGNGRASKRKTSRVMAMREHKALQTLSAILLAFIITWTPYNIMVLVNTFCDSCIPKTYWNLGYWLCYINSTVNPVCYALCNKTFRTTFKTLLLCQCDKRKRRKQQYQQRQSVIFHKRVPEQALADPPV
Test: In vivo electrophysiological recording in caudate/putamen, rM3Ds macaques, intramuscular CNO
Design: rM3Ds; 2A-EYFP (C); host or cells: AAV8R12-transduced striatal D1-MSNs of mice and cynomolgus macaques (in vivo and acute slices)
Procedure: Electrophysiological recording was performed through a recording chamber while the monkey was anesthetized. Neural responses were recorded by a 16-channel linear probe (Plexon Inc, Uprobe) driven by a mechanical microdrive (Alpha Omega, FlexMT). Signals were passed through a head stage (Plexon Inc, HST/16V-G20 LN) and then split and filtered between 300 Hz and 5 kHz to identify spiking activity with an amplifier system (Plexon Inc, OmniPlex). Detected spikes were then sorted by commercially available software (Plexon Inc, Offline Sorter) for further analysis. To quantify the effect of CNO/DCZ injection, neural activity was recorded for 60 minutes following CNO/DCZ injection. The response time-course for each channel was obtained by counting the spikes within every 10-minute window and then normalizing to the maximal.
To determine the effect of CNO/DCZ injection on the direction of signal change, we performed Pearson correlation between neural responses and time using the ‘corr’ function in Matlab, which generates the correlation coefficient ‘r’ and significant level ‘p’. A neuron was considered to have “Increased” activity when r>0 and p<0.05; and considered to have “Decreased” activity when r<0 and p<0.05. Otherwise, neurons were considered to be “Unchanged” in their neural activities. The responses of all increased neurons were then averaged after being normalized by the maximal response (Crowe et al., 2014; Dai and Wang, 2018; Hirokawa et al., 2019) following CNO/DCZ injection, and then plotted as a function of time to generate the normalized population response.
To enable in-vivo verification of the strategy via an opto-tagging approach, AAV virus encoding opsin ChR2 (AAV9-EF1α-DIO-ChR2-EYFP) was injected into the striatum with simultaneous nigral infusion of a retrograde AAV encoding Cre and rM3Ds (AAV8R12-G88P7-HA-rM3Ds-2A-Cre). A total volume of 27 μl (3 μl×9 sites) and 30 μl (3 μl×10 sites) were injected in the SNr and the striatum, respectively. A recording chamber was implanted above the striatum to allow optical stimulation and electrophysiological recording.
Optogenetic verification was conducted six weeks after virus injections. A 16-channel linear probe with an embedded optic fiber (Plexon Inc., Uprobe) was used to deliver light stimulation and record neural responses. A mechanical Microdrive (FlexMT, Alpha Omega, Nazareth, Israel) was used to mount and drive the probe. A blue laser (473 nm, Changchun New Industries Tech, MBL-III-473) was used to generate light stimulation, which was controlled by a DAQ board (National Instruments, PCIe-6321) through the MonkeyLogic toolbox (NIMH version).
Light pulses of 40 Hz that last for 500 ms were used to probe neurons' responses to optical stimulation. […] Responses from these optically identified cells were grouped to generate the normalized population response as a function of time.

With `C[N+]1([O-])CCN(C2=Nc3cc(Cl)ccc3Nc3ccccc32)CC1` [CNO, clozapine N-oxide] the “caudate/putamen cells activated (FIG. 12N)” value (38 total cells, saline 20%) was 50%, the “caudate/putamen cells unchanged (FIG. 12N)” value (38 total cells, saline 26.7%) was 36.8% and the “caudate/putamen cells inactivated (FIG. 12N)” value (38 total cells, saline 53.3%) was 13.2%. The “neuronal activity of opto-tagged retrogradely labeled D1-MSNs” value (AAV8R12-G88P7-HA-rM3Ds-2A-Cre plus AAV9-EF1α-DIO-ChR2-EYFP, anesthetized macaques) was “effectively induced an increase of neuronal activity”, the “caudate cells activated (FIG. 12F)” value (monkey CM048, 38 cells) was 65.8% and the “caudate cells inactivated (FIG. 12F)” value (monkey CM048, 38 cells) was 7.9%. For the same molecule, the “caudate cells unchanged (FIG. 12F)” value (monkey CM048, 38 cells) was 26.3%.

From patent US20250381307A1, “RETRO-AAV AND USE IN TREATING NEURODEGENERATIVE DISEASES” (priority 2023, published 2025)
